“And” between values parts separate entries of the source, which are not always exact repeats. Equal entries are not always repeated.
Key:
[1] = test system: U-87MG glioblastoma cells; test: Cytotoxicity determined by MTT (3 mg/mL); format: cell-based; settings: Homo sapiens, dark
A375 skin melanoma = test system: A375 skin melanoma; parameters: method as in PMID 31625740, PMID 29220545, PMID 34378103; settings: cited from earlier work
[2] = test system: A549 lung cancer cell lines; parameters: method as in PMID 31625740, PMID 29220545, PMID 34378103; settings: cited from earlier work
SH-SY5Y cells [3] = test: Intracellular Ca content by ICP-MS, dark or green light; format: cell-based; settings: kept in the dark
Method: Six hours after compound addition, the cells were irradiated with green light or kept in the dark. Intracellular Ca^2+ levels were then assessed by ICP-MS 24 h after light activation. The NMDA and α-amino-3-hydroxy-5-methyl-4-isoxazole propionic acid (AMPA) receptors being glutamate-gated cation channels allow for an increase of calcium permeability of the neuron membrane; we also used L-glutamic acid (GA, 10 μM), a known NMDA and AMPA activator, as positive control in this assay.
(§1) 1 mL of SH-SY5Y cells were seeded in 12-well plates (Greiner, No. 665180; 500.000 cells per well). […] After an additional 24 h of incubation, the cells were trypsined, collected, and centrifuged. The resulting cell pellet was dissolved in 1 mL of PBS and counted via a BioRad TC20 automated cell counter. Afterward, the solution was centrifuged and washed again with PBS with subsequent centrifuging two more times. The resulting cell pellet was digested in 0.5 mL of HNO3 overnight in a hot oven (90 °C). The solution was diluted with Milli-Q water to 10 mL, and the Ru and Ca content [ppb] was measured via ICP-MS.

SH-SY5Y cells [4] = test: Ru cellular uptake by ICP-MS, dark or green light; format: in vitro ADME; settings: 20 μM, kept in the dark
Method: These surprising results led us to further investigate whether the uptake of the respective compounds plays a pivotal role in the alternation of the proliferation. […] The complex was allowed to incubate for 24 h after irradiation before the ruthenium cellular content was analyzed by ICP-MS. […] We finally decided to incubate the SH-SY5Y cells with the EC50 values obtained from the cytotoxicity experiment using the U-87MG cell, as those procedures would allow one to observe the effect of the prodrug on the healthy neuron-like cells when treated with the phototoxic compound dose. […] Overall, cellular uptake in neuron-like SH-SY5Y cells followed the same trends as those for GBM cells U-87MG in the dark, while uptake was much higher after light activation.
as §1

SH-SY5Y cells [5] = test: Cytotoxicity, SRB end-point assay, dark or green light; format: cell-based
AChE = AChE (Electrophorus electricus, UniProt O42275)
AChE, sequence (O42275 24-633): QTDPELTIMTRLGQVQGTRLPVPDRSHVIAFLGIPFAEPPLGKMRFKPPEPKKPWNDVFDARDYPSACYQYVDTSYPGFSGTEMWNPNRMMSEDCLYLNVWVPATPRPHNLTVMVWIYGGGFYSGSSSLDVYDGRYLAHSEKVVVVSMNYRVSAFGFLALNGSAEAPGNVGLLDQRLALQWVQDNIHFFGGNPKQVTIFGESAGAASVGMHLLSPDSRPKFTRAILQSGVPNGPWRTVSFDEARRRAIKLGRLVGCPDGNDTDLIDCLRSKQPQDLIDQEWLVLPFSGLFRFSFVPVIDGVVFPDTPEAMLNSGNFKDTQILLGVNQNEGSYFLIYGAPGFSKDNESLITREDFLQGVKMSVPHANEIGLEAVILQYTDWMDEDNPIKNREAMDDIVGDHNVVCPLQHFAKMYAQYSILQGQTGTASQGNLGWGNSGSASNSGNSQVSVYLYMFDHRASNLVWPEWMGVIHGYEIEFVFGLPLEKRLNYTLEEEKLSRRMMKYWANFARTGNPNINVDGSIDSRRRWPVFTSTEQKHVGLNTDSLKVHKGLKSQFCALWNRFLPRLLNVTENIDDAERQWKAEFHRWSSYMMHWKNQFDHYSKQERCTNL
Source text: Among all enzymes involved in transmembrane signaling, another important one is AChE. In a modified procedure (for further details, see the Experimental Section), we checked whether the ruthenium complexes were able to inhibit AChE in the dark and after light activation. The colorimetric assay used Ellman’s reagent. […] The conversion of 5,5′-dithiobis(2-nitrobenzoic acid) (DTNB) to yellow 2-nitro-5-thiobenzoate (TNB) initiated by the addition of acetylthiocholine was then detected by UV–vis spectroscopy every 5 min for a total time of […]. […] The solution was further diluted 1:50 in 50 mM Tris buffer, pH = 8 (10 μL in 490 μL), and then placed in 4.5 mL of 50 mM Tris buffer, pH = 8. […] 50 μL of the enzyme and 50 μL of the complex solution were added to a 96-well plate in triplicates. […] Meanwhile, a 10 mM solution of acetylthiocholine iodide and 10 mM DTNB was prepared. After the respective time, in each well, 5 μL of the acetylthiocholine iodide and DTNB mixture was added. The absorbance was read at a microplate Tecan reader at 410 nm every 5 min for in total 40 min.

[6] = test system: U-87MG glioblastoma cells; test: Cytotoxicity, SRB end-point assay, dark or green light; settings: read-out: EC50,D, kept in the dark, 24 h + 48 h incubation, normoxic (21% O2)
[7] = Stability in the dark in the presence of L-glutathione (UV-vis); format: physicochemical; settings: water, 37 °C, 500 μM L-glutathione, spectra after 2 and 24 h
Method: The synthesis and characterization of all three complexes have been described earlier and can be found in refs ([56]) and ([57]). In water or OptiMEM cell medium, the complexes were also previously found to be stable in the dark for at least 24 h at 37 °C. Upon blue or green light irradiation (λ = 452 or 517 nm), they are activated by photosubstitution of the thioether ligand to afford the aqua ruthenium complex and the free thioether ligand.[56] […] The UV–vis spectra were then recorded after 2 and 24 h separately. […] Additionally, we could not observe any color change, which is typical when one of the ligands is exchanged against another one.
UV–vis spectroscopy experiments were performed on a Cary 60 Varian spectrometer equipped with a temperature control set to 310 K and a magnetic stirrer. The measurements were performed in a quartz cuvette containing 3 mL of solution. […] Then, the UV–vis spectrum was recorded without the presence of GSH. After 4 min, GSH was added (0.5 mM) and UV–vis spectra were recorded directly after and after 2 and 24 h, while the vial was kept in the dark and at 37 °C.

U-87MG cells = test: Ru cellular uptake by ICP-MS; format: in vitro ADME; settings: 10 μM; for Ru cellular uptake: dark
Source text: The cellular accumulation of Ru^2+ can provide additional information about how differences in anticancer efficacy may relate to the amount of the Ru prodrug in the cell before light activation. For instance, low uptake often leads to limited cytotoxicity due to limited access to the drug target. […] Similar results have been observed in A549 lung cancer cells previously.[56] […] For unknown reasons, it appears that the amine bridge in the i-diqa ligand facilitates the uptake of ruthenium compound [3](PF6)2.
Materials: 65% nitric acid (Suprapur, Merck) was used in the sample digestion process, while diluted 1% nitric acid (v/v) was employed as a carrying solution throughout the ICP measurements. For preparation of calibration and internal standards, National Institute of Standards and Technology (NIST)-traceable 1000 mg/L elemental standards were used (TraceCERT, Fluka). Approximately 18 MΩ cm^–1 water (Milli-Q) was employed in all sample preparation and analysis steps.
Instrumentation: Calibration standards were prepared in a Secuflow fume hood (SCALA) to prevent contamination by atmospheric particulates. The standard samples and measurement samples were analyzed for trace elements using the NexION 2000 (PerkinElmer) ICP-MS instrument equipped with a concentric glass nebulizer and a Peltier-cooled glass spray chamber. An SC2 DX autosampler (PerkinElmer) was connected to ICP-MS for sample introduction. Syngistix software for ICP-MS (v.2.5, PerkinElmer) was used for all data recording and processing. Five trace elemental calibration standards for ICP-MS analysis were prepared using NIST-traceable 1000 mg/L Ru standards: 0, 1, 5, 20, and 100 μg/L. Samples were analyzed without dilution in the original delivery containers to minimize the possibility of contamination. Here, 10 μg/L Rh and In were used as internal standards. To check the calibration, samples were analyzed with a blank measurement and a repeat measurement with one of the calibration standards.
Sample preparation: 1 mL of U-87MG cells were seeded in 12-well plates (Greiner, No. 665180; 400.000 cells per well). […] Afterward, the cells were trypsined, collected, and centrifuged. The resulting cell pellet was dissolved in 1 mL of PBS and counted via a BioRad TC20 automated cell counter. Afterward, the solution was centrifuged and washed again with PBS with subsequent centrifuging. This washing step was repeated twice. The resulting cell pellet was digested in 0.5 mL of 65% HNO3 overnight in a hot oven (90 °C). The solution was diluted with Milli-Q water to 10 mL, and the Ru content [ppb] was measured by ICP-MS.

**Q.** For Cn1nnc2c(C(N)=O)ncn2c1=O [temozolomide], which EC50 [1] is on record?
**A.** > 100 µM

**Q.** What does the source list for O.[Ru+2].c1ccc(-c2cccc(-c3ccccn3)n2)nc1.c1ccc(-c2ccccn2)nc1 [[4]^2+, [Ru(tpy)(bpy)(OH2)]^2+]?
**A.** toxicity (in words) (A375 skin melanoma): nontoxic; toxicity (in words) [2]: nontoxic

**Q.** With N[C@@H](CCC(=O)O)C(=O)O [L-glutamic acid, reference compound] as the compound, how does the “Ca uptake, Dark” value (SH-SY5Y cells [3]; 10 μM) read?
**A.** 322.84± 53 ng Ca/mio. cells

**Q.** What about the “Ca uptake, Dark” value (SH-SY5Y cells [3]; 10 μM, listed as Glutamate) of the same compound?
**A.** 322 ng Ca/mio. cells

**Q.** Which “Ru uptake, Dark” value (SH-SY5Y cells [4]) does the source give for CSCCO.F[P-](F)(F)(F)(F)F.F[P-](F)(F)(F)(F)F.[Ru+2].c1ccc(-c2cccc(-c3ccccn3)n2)nc1.c1ccc(-c2ccccn2)nc1 [[1](PF6)2] here?
**A.** 0.40 ± 0.25 ng Ru/mio. cells and 0.4 ng Ru/mio. cells

**Q.** What about the “Ca uptake, Dark” value (SH-SY5Y cells [3]; 20 μM) of the same compound?
**A.** 467.78 ± 122 ng Ca/mio. cells and 467 ng Ca/mio. cells

**Q.** And the “concentration required to block cell growth” value (SH-SY5Y cells [5]; in the dark)?
**A.** > 40 µM

**Q.** And the EC50 (SH-SY5Y cells [5]; kept in the dark, SRB, normoxic (21% O2))?
**A.** > 100 µM

**Q.** And the PI (AChE; AChE, IC50 dark / IC50 green light)?
**A.** >2.2

**Q.** What about the IC50 (AChE; read-out: IC50,D, isolated AChE, 30 min in the dark, read 35 min after DTNB addition) of the same compound?
**A.** > 15 µM

**Q.** What about the EC50 [6] of the same compound?
**A.** > 100 µM

**Q.** And the “stability in the dark with GSH (UV-vis, in words)” value [7]?
**A.** no change suggesting ligand exchange on ruthenium was observed

**Q.** And the Uptake in % (U-87MG cells; 6 h)?
**A.** 0.56%

**Q.** And the Ru cellular uptake (U-87MG cells; 6 h incubation)?
**A.** 0.6 ng Ru/mio. cells and 0.60 ± 0.38 ng Ru/mio. cells

**Q.** What about the Uptake in % (U-87MG cells; 24 h) of the same compound?
**A.** 0.43%

**Q.** And the Ru cellular uptake (U-87MG cells; 24 h incubation)?
**A.** 0.42 ng Ru/mio. cells and 0.42 ± 0.11 ng Ru/mio. cells

**Q.** And the overall uptake (U-87MG cells; one figure given for 6 and 24 h)?
**A.** 0.5%

— PMC11833736 (ACS Pharmacology & Translational Science, 2025)
